Data as given in ChEMBL document CHEMBL4665912, “Novel Compounds as STING Modulators for Treating Hepatitis B Virus Infections” (ACS Med Chem Lett, 2020).

Assays:
[1] = molecular target: T1, Stimulator of interferon genes protein (Homo sapiens, UniProt Q86WV6); test: Agonist activity at STING in human PBMC cells assessed as increase in […] by electrochemiluminescence assay; assay type: cell-based
[2] = molecular target: T1, Stimulator of interferon genes protein; test: Competitive binding affinity to human recombinant C-terminal Avi-tag STING using Alexa 488 probe incubated for 15 mins by FRET based assay

T1 sequence (Q86WV6 whole entry): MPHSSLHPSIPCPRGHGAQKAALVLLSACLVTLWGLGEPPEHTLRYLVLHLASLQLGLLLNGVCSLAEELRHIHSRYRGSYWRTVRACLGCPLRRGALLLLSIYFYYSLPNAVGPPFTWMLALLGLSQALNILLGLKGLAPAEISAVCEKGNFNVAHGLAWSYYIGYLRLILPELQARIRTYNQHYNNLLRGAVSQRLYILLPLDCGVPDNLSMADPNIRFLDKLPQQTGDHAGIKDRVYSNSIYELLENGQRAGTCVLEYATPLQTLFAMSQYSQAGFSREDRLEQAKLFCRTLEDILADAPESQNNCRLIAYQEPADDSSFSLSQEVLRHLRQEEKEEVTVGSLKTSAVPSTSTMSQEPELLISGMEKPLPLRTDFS

## CCn1nc(C)cc1C(=O)/N=c1\n(C)c2ccccc2n1C/C=C/Cn1/c(=N/C(=O)c2cc(C)nn2CC)n(C)c2cccc(CN3CCCCC3)c21
[1]
  EC50: < 1 nM
[2]
  IC50: < 1 nM

## CCn1nc(C)cc1C(=O)/N=c1\n(C)c2ccccc2n1C/C=C/Cn1/c(=N/C(=O)c2cc(C)nn2CC)n(C)c2c(CO)cccc21
[1]
  EC50: < 1 nM
[2]
  IC50: < 1 nM

## CCn1nc(C)cc1C(=O)/N=c1\n(C)c2cccc(OC)c2n1C/C=C/Cn1/c(=N/C(=O)c2cc(C)nn2CC)n(C)c2cccc(OCCCO)c21
[1]
  EC50: < 1 nM
[2]
  IC50: < 1 nM

## CCn1nc(C)cc1C(=O)/N=c1\n(C)c2ccccc2n1C/C=C/Cn1/c(=N/C(=O)c2cc(C)nn2CC)n(C)c2cccc(C(O)CO)c21 (configuration not stated)
[1]
  EC50: 1 nM
[2]
  IC50: < 1 nM

## CCn1nc(C)cc1C(=O)/N=c1\n(C)c2ccccc2n1C/C=C/Cn1/c(=N/C(=O)c2cc(C)nn2CC)n(C)c2cccc(CN3CCOCC3)c21
[1]
  EC50: < 1 nM
[2]
  IC50: < 1 nM

## CCn1nc(C)cc1C(=O)/N=c1\n(C)c2ccccc2n1C/C=C/Cn1/c(=N/C(=O)c2cc(C)nn2CC)n(C)c2cccc(CN3CCCCCC3)c21
[1]
  EC50: < 1 nM
[2]
  IC50: < 1 nM
